Laboratory results published in patent US20120322751A1 (priority 2010, published 2012).
Converted amounts (≈) assume the structure as drawn.

What was measured:
[1] = molecular target: T1, Guinea pig lung LTC4 synthase (Cavia porcellus, UniProt A6XA80); assay: Leukotriene C4 synthase inhibition (EIA); type: biochemical; settings: highest concentration (1,000 μM/ml); solvent DMSO
T1 construct: Guinea pig lung LTC4 synthase was used; from tissue; host or cells: guinea pig lung
T1 sequence (A6XA80 1-150): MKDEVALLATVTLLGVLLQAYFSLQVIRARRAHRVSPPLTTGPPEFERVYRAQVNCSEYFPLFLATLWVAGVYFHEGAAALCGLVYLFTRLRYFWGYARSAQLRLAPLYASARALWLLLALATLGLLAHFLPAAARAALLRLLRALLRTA
Description: Leukotriene C4 (LTC4) synthase is crucial in the formation of LTC4 from LTA4. Taken together with other assays for enzymes involved in the lipoxygenase pathway (e.g. 5-lipoxygenase, LTA4 hydrolase), a locus of action can be established, mechanism of agents' activities which inhibit the formation of the leukotrienes.
Guinea pig lung LTC4 synthase was used. Test compound and/or vehicle was preincubated with 180 μg/ml enzyme dissolved in phosphate buffer pH 7.8 for 15 minutes at 37° C. The reaction was initiated by addition of 2.5 μg/ml LTA4 methyl ester for another 30 minute incubation period and terminated by further addition of ice-cold methanol. Determination of the amount of LTC4 formed was read spectrophotometrically by enzyme immunoassay kit (EIA). Compounds was tested at the concentrations of 1,000; 100; 10; and 1 μM/ml. The used solvent was DMSO.

[2] = test system: DNCB induced delayed type hypersensitivity reactions; assay: Delayed type hypersensitivity (DTH) in DNCB sensitised nude guinea pigs; type: in vivo, nude guinea pig; settings: topical twice daily during 7 days; by day 7; preliminary data
Description: The nude guinea pig is used as test animal because of different animal skins, nude guinea pig skin is claimed to be the one closest resembling human skin. […] In DNCB sensitised guinea pigs delayed type hypersensitivity reactions were induced with patches soaked with 0.25% (w/v) DNCB in ethanol/propylene glycol kept on the animals back for 24 hours. The test sites were treated twice daily during 7 days with: Dovonex (commercially available ointment with calcipotriene; 1% (w/w) BAC-3 in US petrolatum. Locobasis (commercially available ointment, identical as carrier for steroids; 1% (w/w) non purified BAC-3 (86%) in US petrolatum; US petrolatum; Preferid (commercially available steroid).

[3] = Preservation of structure during 10 years after production; type: physicochemical; settings: under nitrogen N2 in glass bottles at room temperature
From the text: On the figure has been shown the purity of the rhamnolipid BAC-3 (FIG. 10) and mass spectrum (FIG. 11) ten years after production. The production of the rhamnolipid BAC-3 purity>98.5 is very expensive procedure. Therefore one of the most important task of rhamnolipid BAC-3 production is achieving clinically acceptable purity without using HPLC-MS equipment, except for control purposes of the purity and mass spectrum.

[4] = test system: TPA/pyr induced acute ear inflammation; assay: TPA/pyr induced acute ear inflammation; type: in vivo, Swiss-Webster mice; settings: topical 0.1% solution
From the text: The inflammatory responses occur in three distinct phases, each apparently mediated by different mechanisms: an acute one characterized by local vasodilatation and increased capillary permeability, a subacute phase characterized by infiltration of leukocyte and phagocytic cells and a chronic proliferative phase, in which tissue degeneration and fibrosis occur. Acute inflammation generated by TPA (12-o-tetradecanoylforbolacetat/pyridine) induces an acute inflammatory reaction consisting of erythema, edema and polymorphonuclear leukocyte (PMN) infiltration The mechanism of anti-inflammatory mode of action of di-rhamnolipid BAC-3 is unknown. So far, it has been shown that Pseudomonas di-rhamnolipids stimulate, both chemotaxis and chemokinesis of leukocytes). In vitro studies examining the effects of pulmonary surfactant containing hydrophobic apopoproteins on human neutrophils have the important role of the protein component of the surfactant in enhancing the leukocyte chemotaxis, opsonizing bacteria, enhancing macrophage function, and stimulating antibody production. […] Correspondingly, it has been recognized that glycolipids (biosurfactants) through their virtue of hidrophilic head bind to proteins, i.e. receptors on cell membranes. […] It has been proposed that rhamnolipid increased the early recruitment of inflammatory cells to the site of inflammation without triggering a persistent, abnormal accumulation of neutrophils.
In the experiment it was proven that rhamnolipd (BAC-3) at concentration (1 mg/ml^−1, 0.1% w/v) was effective as a topical therapeutic anti-inflammatory agent in the TPA/pyr model of acute dermal ear inflammation in female Swiss-Webster mice over a time-course of 24 hours. The time of maximal reduction of inflammation was dependent on the time of treatment, with respect to induction.
Post treatment with BAC-3 two hour after inflammation reversed established inflammation with maximal effect after 11 hours. (32% lower inflammation in comparison with control). […]

[5] = test system: Normal human fibroblasts derived from foreskin; assay: Collagen synthesis and total protein synthesis by human fibroblasts in vitro; type: cell-based
Description: a) Neonatal human fibroblast culture was established from a sample of neonatal human foreskin obtained by circumcision. After removal of subcutaneous tissue by dissection, the sample was desegregated by trypsinization with 0.25% trypsin and 1 mM EDTA solution (Gibco). Released cells were propagated in 100 mm plastic tissue culture dishes (Corning) in incubator at 37° C. saturated with 5% CO2. The medium, changed twice weekly, was a mixture of 0.2 mg/ml calcium, 4500 mg/l glucose in Dulbecco's modified Eagle's medium (DMEM, Gibco) supplemented with 10% fetal bovine serum FBS (Gemini-Bio-Products), 0.292 mg/ml L-glutamine (Gibco) and antibiotic-antimycotic solution containing 100 U penicillin-G/ml, 100 mcg/ml streptomycin and 0.25 mcg/ml fungizione in normal saline (Gemini-Bio-Products). Primary culture cells were trypsinized. To achieve enough cells of the same passage, the cells were replanted two times during two weeks and transplanted in bigger dishes before incubation started. At density 5×10^5 NHK 98-009 of fibroblasts of passage 4 was transplanted in Petri dishes in DMEM medium. When cells achieved ca 50% of confluence they were treated with solutions of BAC-3 with 0; 1; 10; 100; 250; and 500 μg/ml and 50 μg/ml of ascorbic acid (Sigma). All solutions were filtrated through 0.2 μm filters (Fisher). The media with or without BAC-3 were changed once after two days. 100 μg of ascorbic acid were added each day in media until achieving final concentration of 50 μg/ml of ascorbic acid in each of Petri dishes. […]
Normal human fibroblasts derived from foreskin were cultured in T-25 flasks and were treated with BAC-3 at concentrations of 1 μg/ml, 10 μg/ml, and 100 μg/ml in the way previously described. […] One half of the sonicate was hydrolyzed in 6N HCl; hydroxyproline was measured in the hydrolisate to determine collagen synthesis. […] Total collagen per flask was determined multiplying the hydroxiproline value by 7.8. […]

[6] = test system: human mononuclear cells (MNC); assay: cells; type: cell-based

CCCCCCCC(CC(=O)O)OC(=O)CC(CCCCCCC)OC1OC(C)C(O)C(O)C1OC1OC(C)C(O)C(O)C1O (stereo not shown) [BAC-3]
inhibition at 1000 µM [1]: 81% | state of DTH test area [2]: almost healed with only a slight erythema present | structure after storage [3]: did not change its structure | decrease of inflammation vs control ear, pre-treatment ([4]; single dose 1 hour before TPA/pyr): 15% | lower inflammation vs control, post treatment ([4]; two hours after induction, maximal effect after 11 hours): 32% | inhibition of inflammation vs control ear, concurrent treatment ([4]; with TPA/pyr induction, at 6 hours): about 32% | percent of protein synthesis dedicated to collagen synthesis ([5]; 1, 10, 100 μg/ml, harvested day 4 and day 7, vs control cells, p<0.05 ANOVA): significantly reduced | total collagen synthesis per flask ([5]; treated as in example 6, FIG. 9 (2a)): decreases synthesis of collagen | overall protein synthesis per flask ([5]; treated as in example 6, FIG. 9 (2b)): increase in overall synthesis | inhibition of MNC proliferation with SEB as stimulus [6]: almost no inhibition | proliferation of MNC as response to different stimulants [6]: inhibited proliferation | IC50 ([6]; Homo sapiens, PHA at 1 μg/ml, printed 'at the concentration of 5 μg/ml', read-out: IC50, inhibition of MNC proliferation in response to PHA): 35 µg/mL (≈ 53.8 µM)

C=C1/C(=C\C=C2/CCC[C@]3(C)[C@@H]([C@H](C)/C=C/[C@@H](O)C4CC4)CC[C@@H]23)C[C@@H](O)C[C@@H]1O [calcipotriene, reference compound]
state of DTH test area [2]: almost healed with only a slight erythema present
